The values that follow come from ChEMBL document CHEMBL4665778, “Discovery of Potent and Selective PI3Kγ Inhibitors” (J Med Chem, 2020).

Series [1] can be described thus: Intrinsic clearance in human hepatocytes assessed per 10^6 cells at 0.5 uM by LC-MS/MS analysis. The following applies: read-out: CLH. The class given is ADME, cell-based, Hepatocyte.
A short description of series [2]: Intrinsic clearance rat hepatocytes assessed per 10^6 cells by LC-MS/MS analysis. It is filed as ADME, tissue-based, Hepatocyte. Conditions: read-out: CLH.
A short description of series [3]: Clearance in Sprague-Dawley rat at 0.25 mg/kg, iv by LC-MS/MS analysis. The class given is ADME, organism-based. The following applies: in vivo.
Series [4] can be described thus: Volume of distribution at steady state in Sprague-Dawley rat at 0.25 mg/kg, iv by LC-MS/MS analysis. The class given is ADME, organism-based. Conditions: in vivo, read-out: Vdss.
Series [5] deals with PI3-kinase p110-alpha/p85-alpha (Homo sapiens, UniProt P42336).
PI3-kinase p110-alpha/p85-alpha, sequence (P27986 whole entry): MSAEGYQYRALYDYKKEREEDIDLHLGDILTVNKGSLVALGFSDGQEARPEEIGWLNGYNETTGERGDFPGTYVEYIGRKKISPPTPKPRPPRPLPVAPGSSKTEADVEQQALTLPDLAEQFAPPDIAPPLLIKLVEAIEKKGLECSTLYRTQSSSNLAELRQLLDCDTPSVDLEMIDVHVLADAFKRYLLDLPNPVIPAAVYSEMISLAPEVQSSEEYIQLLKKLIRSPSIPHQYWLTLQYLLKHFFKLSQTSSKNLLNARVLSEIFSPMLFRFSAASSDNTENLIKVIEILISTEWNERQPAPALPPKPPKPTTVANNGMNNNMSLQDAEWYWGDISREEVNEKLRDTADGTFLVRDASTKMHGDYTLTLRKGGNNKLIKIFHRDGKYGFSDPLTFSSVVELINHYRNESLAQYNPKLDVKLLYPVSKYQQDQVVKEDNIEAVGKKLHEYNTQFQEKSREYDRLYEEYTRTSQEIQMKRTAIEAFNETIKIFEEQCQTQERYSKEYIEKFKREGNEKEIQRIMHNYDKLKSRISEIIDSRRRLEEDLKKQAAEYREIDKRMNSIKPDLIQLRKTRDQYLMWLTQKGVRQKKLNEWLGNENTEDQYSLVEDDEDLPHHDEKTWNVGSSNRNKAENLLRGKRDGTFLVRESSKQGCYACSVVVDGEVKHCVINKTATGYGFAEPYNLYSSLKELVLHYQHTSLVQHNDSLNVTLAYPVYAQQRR
PI3-kinase p110-alpha/p85-alpha, sequence (P42336 whole entry): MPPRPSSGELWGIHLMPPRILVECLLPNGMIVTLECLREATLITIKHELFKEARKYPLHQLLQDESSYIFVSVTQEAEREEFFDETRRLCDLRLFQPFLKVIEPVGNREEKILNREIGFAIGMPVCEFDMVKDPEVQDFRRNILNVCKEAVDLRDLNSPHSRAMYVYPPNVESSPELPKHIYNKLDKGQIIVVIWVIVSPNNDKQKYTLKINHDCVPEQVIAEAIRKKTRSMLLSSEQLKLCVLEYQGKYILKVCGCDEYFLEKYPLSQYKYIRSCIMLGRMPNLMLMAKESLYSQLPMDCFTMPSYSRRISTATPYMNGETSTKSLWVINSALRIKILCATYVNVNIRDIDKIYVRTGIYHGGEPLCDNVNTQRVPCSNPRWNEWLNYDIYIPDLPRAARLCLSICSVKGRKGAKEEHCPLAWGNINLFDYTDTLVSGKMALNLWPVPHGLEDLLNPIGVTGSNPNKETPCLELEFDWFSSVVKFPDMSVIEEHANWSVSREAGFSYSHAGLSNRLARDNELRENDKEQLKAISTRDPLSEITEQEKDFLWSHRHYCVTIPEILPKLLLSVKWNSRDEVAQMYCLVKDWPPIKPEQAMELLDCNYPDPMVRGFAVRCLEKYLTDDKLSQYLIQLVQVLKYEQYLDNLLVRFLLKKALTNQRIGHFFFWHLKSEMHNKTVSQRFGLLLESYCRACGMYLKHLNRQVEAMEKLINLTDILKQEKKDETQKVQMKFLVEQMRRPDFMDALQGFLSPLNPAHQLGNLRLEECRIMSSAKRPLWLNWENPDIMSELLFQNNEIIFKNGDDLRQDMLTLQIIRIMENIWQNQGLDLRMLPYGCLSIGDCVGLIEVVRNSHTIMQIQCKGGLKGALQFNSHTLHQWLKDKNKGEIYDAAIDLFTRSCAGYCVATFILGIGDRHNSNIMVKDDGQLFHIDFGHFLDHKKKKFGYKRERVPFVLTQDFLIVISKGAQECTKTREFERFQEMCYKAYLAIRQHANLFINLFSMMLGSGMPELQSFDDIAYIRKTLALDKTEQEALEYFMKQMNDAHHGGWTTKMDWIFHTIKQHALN
Description: Inhibition of recombinant N-terminal FLAG-tagged full-length human PI3K p110alpha/human p85alpha co- expressed in Sf9 insect cells using phosphatidylinositol 4,5-bisphosphate as substrate preincubated for 60 mins followed by substrate addition and measured after 1 hr in presence of ATP by ADP-Glo lipid kinase assay
The target of the next series is PI3K p110 beta/p85 alpha (Homo sapiens, UniProt P42338).
PI3K p110 beta/p85 alpha, sequence (P27986 whole entry, canonical isoform): as the sequence (P27986 whole entry) above
PI3K p110 beta/p85 alpha, sequence (P42338 whole entry, canonical isoform): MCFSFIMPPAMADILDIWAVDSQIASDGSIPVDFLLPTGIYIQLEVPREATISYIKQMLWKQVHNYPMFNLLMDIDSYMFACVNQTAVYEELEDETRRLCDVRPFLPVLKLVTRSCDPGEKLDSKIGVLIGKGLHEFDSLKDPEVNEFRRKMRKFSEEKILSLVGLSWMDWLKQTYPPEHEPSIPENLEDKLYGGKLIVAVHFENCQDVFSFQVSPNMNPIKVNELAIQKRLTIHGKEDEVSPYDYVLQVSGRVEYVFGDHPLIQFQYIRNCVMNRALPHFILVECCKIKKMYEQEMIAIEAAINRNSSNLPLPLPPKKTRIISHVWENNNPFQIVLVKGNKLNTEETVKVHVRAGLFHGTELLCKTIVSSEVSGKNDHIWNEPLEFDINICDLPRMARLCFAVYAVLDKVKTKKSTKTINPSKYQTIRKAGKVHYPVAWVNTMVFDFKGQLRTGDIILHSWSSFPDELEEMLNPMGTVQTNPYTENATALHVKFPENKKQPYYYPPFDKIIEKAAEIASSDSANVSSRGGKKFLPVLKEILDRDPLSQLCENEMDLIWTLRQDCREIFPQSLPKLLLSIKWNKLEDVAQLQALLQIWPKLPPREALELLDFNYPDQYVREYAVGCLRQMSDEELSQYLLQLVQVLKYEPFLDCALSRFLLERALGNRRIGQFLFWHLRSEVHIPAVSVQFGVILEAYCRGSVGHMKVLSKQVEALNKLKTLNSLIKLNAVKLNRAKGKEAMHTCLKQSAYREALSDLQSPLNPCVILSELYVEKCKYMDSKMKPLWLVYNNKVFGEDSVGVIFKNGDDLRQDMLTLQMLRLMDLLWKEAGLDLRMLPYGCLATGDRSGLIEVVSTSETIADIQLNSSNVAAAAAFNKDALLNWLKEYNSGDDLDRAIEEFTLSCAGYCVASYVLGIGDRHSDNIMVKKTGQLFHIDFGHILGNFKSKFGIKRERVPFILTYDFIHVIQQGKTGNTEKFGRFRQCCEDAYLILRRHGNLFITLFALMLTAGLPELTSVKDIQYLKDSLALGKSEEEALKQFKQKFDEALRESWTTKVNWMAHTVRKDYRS
Series [6] has as its target T1, Phosphatidylinositol 4,5-bisphosphate 3-kinase catalytic subunit gamma isoform (Homo sapiens, UniProt P48736).
Description: Inhibition of recombinant N-terminal His-tagged full-length human PI3K p120gamma expressed in Sf9 insect cells using phosphatidylinositol 4,5-bisphosphate as substrate preincubated for 60 mins followed by substrate addition and measured after 1 hr in presence of ATP by ADP-Glo lipid kinase assay
The target of series [7] is PI3-kinase p110-delta/p85-alpha (Homo sapiens, UniProt O00329).
PI3-kinase p110-delta/p85-alpha, sequence (P27986 whole entry, canonical isoform): as the sequence (P27986 whole entry) above
PI3-kinase p110-delta/p85-alpha, sequence (O00329 whole entry, canonical isoform): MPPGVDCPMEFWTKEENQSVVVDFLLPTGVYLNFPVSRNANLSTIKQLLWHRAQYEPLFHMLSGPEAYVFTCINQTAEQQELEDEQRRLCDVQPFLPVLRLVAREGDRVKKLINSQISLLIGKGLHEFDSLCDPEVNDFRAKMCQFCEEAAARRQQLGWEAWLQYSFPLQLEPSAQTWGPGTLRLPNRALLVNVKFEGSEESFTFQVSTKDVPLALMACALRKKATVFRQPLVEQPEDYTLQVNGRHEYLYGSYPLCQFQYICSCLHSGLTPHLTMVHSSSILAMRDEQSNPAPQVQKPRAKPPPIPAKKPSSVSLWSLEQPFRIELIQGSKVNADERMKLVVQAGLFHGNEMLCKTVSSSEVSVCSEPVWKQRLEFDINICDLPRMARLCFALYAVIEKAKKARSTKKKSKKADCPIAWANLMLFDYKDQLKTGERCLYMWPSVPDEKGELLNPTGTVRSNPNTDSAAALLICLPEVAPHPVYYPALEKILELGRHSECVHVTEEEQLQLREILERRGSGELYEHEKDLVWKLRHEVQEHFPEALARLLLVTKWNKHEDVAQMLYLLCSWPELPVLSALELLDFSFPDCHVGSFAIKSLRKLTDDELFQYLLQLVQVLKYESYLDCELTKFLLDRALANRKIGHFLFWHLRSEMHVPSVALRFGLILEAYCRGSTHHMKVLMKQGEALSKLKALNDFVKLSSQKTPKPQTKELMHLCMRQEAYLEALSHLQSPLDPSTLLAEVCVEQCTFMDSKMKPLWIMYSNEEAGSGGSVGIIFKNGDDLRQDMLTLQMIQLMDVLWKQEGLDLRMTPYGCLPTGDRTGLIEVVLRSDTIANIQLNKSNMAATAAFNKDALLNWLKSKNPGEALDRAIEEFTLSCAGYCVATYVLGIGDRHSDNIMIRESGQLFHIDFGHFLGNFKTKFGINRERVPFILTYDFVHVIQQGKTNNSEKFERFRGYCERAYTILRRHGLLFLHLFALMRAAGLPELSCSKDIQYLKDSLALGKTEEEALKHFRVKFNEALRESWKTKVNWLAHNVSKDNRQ
Description: Inhibition of recombinant N-terminal GST-tagged full-length human PI3K p110delta/p85alpha co- expressed in Sf9 insect cells using phosphatidylinositol 4,5-bisphosphate as substrate preincubated for 60 mins followed by substrate addition and measured after 1 hr in presence of ATP by ADP-Glo lipid kinase assay
Series [8] deals with T1, Phosphatidylinositol 4,5-bisphosphate 3-kinase catalytic subunit gamma isoform. This is another data set of the same source.
Description: Inhibition of PI3Kgamma in human THP-1 cells assessed as reduction in Akt phosphorylation at S473 residue incubated for 60 mins by alphalisa assay
The species named for a further series is Homo sapiens. Briefly: Selectivity index, ratio of IC50 for N-terminal FLAG-tagged full-length human PI3K p110beta/human p85alpha to IC50 for recombinant N-terminal His-tagged full-length human PI3K p120gamma.
The target of a further series is CYP3A4 (Homo sapiens, UniProt P08684). Put plainly: in vitro. Conditions: liver microsomes, probe midazolam.

T1 sequence (P48736 whole entry, canonical isoform): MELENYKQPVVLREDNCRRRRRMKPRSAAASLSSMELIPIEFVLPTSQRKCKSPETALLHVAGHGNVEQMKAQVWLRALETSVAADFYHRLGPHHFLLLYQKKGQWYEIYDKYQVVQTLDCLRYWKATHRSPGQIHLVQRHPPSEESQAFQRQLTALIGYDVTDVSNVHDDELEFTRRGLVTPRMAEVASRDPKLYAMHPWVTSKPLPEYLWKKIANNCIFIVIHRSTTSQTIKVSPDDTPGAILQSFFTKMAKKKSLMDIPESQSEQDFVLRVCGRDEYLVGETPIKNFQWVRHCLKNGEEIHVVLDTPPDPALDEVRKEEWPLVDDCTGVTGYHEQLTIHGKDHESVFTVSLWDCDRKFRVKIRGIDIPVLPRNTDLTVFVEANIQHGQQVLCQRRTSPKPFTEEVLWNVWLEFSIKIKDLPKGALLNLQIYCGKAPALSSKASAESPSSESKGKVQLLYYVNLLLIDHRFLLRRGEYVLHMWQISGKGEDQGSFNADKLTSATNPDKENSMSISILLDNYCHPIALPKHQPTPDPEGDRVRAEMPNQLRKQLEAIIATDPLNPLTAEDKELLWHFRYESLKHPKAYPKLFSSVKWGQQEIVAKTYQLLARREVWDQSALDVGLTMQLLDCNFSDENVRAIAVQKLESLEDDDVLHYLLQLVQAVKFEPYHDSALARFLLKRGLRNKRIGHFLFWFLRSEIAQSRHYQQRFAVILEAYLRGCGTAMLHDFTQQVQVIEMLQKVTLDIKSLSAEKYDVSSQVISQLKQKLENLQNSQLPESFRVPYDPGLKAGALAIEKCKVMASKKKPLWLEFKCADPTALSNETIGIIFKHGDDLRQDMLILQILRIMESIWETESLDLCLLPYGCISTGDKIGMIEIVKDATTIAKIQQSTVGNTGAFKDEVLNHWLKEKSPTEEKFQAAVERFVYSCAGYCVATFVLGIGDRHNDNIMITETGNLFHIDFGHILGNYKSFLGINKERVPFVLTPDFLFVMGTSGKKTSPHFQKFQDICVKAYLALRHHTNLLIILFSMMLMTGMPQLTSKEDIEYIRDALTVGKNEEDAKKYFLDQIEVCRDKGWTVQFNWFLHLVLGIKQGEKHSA
Description for PI3K p110 beta/p85 alpha: Inhibition of recombinant N-terminal FLAG-tagged full-length human PI3K p110beta/human p85alpha co- expressed in Sf9 insect cells using phosphatidylinositol 4,5-bisphosphate as substrate preincubated for 60 mins followed by substrate addition and measured after 1 hr in presence of ATP by ADP-Glo lipid kinase assay

Consider `C[C@@H](C1CC1)N1Cc2cc(-c3ccn4nc(N)c(-c5cnn(C)c5)c4n3)cc(C(F)(F)F)c2C1=O`, for which the hepatocyte CLint at 0.5 µM in [1] was 3.3 µL/min/1e6 cells. In series [2], the hepatocyte CLint turned out to be 7.4 µL/min/1e6 cells. The molecule also showed a clearance in [3] of 0.78 L/h/kg. Moreover, the Vd in series [4] turned out to be 1.2 L/kg. The half-maximal inhibitory concentration (IC50) was 1.94 µM in series [5]; greater than 15 µM against PI3K p110 beta/p85 alpha; 0.0019 µM in [6]; 1.31 µM in series [7]; 0.064 µM in [8].

As to `CC(C)c1cc(-c2cnn3ccc(-c4cc5c(c(C(F)(F)F)c4)C(=O)N([C@@H](C)C4CC4)C5)nc23)ccc1C(=O)O`, in series [1], the hepatocyte CLint at 0.5 µM was less than 1.2 µL/min/1e6 cells. Further, in [2], the hepatocyte CLint worked out at 1.7 µL/min/1e6 cells. The same molecule had a clearance in series [3] of 5.2 L/h/kg. Also, the Vd in series [4] was 25 L/kg. The Ratio IC50 in the series listed under Homo sapiens came to 5520. In addition, the half-inhibitory concentration (IC50) in series [5] came out at 0.194 µM; at PI3K p110 beta/p85 alpha it was 11.6 µM; in series [6], 0.0021 µM; in [7] it was 0.459 µM; in series [8] it was 0.074 µM. The molecule further gave an inhibition at 10 µM against CYP3A4 of 13%.
